In the assay the target is T1, horseradish peroxidase (HRP) tagged delF508-CFTR (Homo sapiens, UniProt P13569, DEL508-508).
T1 construct: expressed in transfected cells
The experiment in a line: Measurement of delF508-CFTR-HRP surface expression in CFBE41o- cells.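 For DelF508-CFTR-HRP Amax %: percent efficacy relative to reference corrector lumacaftor.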 As to conditions: CFBE41o- cells; for EC50: read-out: DelF508-CFTR-HRP EC50; for Emax: read-out: DelF508-CFTR-HRP Amax %. Format: cell-based. An excerpt:
Measurement of delF508-CFTR-HRP Surface Expression in CFBE41o-Cells
This assay quantifies the cell surface expressions of the mutant CFTR channel using an extracellular HRP tag.
A cellular assay was developed to measure surface expression of horseradish peroxidase (HRP) tagged delF508-CFTR in the human bronchial epithelial immortalized CFBE41o-cell line (Phuan, P. W., et al, (2014) Molecular Pharmacology 86:42-51). Specifically, the HRP sequence was inserted into the fourth extracellular loop of delF508-CFTR and stably expressed in CFBE41o-cells. Cells were seeded in 384 well plate at a density of 5000 cells/well and incubated at 37° C. for 12 to 24 hours in medium (Gibco MEM #11095, 10% FBS, 10 mM HEPES, […], 200 μg/mL G418, 3 μg/mL Puromycin). The delF508-CFTR-HRP expression was induced with 500 ng/mL doxycycline (Sigma D-9891, dissolved in H2O and sterile filtered) in medium and the cells were incubated at 37° C. for 48h. Old medium was removed and fresh medium was added containing 500 ng/mL doxycycline and unknown test compound at required test concentration in DMSO, not exceeding 0.5% final DMSO concentration. The highest concentration tested was 10 μM with a 10-point concentration response curve using a 3-fold dilution. After addition of compounds, the cells were incubated for 24h at 37° C. On the final day, cells were washed four times in PBS containing 1 mM MgCl2 and 0.1 mM CaCl2. HRP-Substrate (SuperSignal ELISA Pico, Fisher #37069) 20 μl/well was added and the luminescence signal was determined (Viewlux, Perkin Elmer). Light was emitted upon addition of exogenous HRP-Substrate only when delF508-CFTR-HRP reached the cell surface and the HRP tag was accessible to the HRP-Substrate (note: HRP-Substrate cannot cross the lipid bilayer to reach delF508-CFTR-HRP misfolded within the cell).
The median activity for the lowest concentration of the compounds on each assay plate was calculated and this value was used to normalize the signal for each well on the respective plate. Three replicates at each concentrations for every compound were run to determine one EC50. The median value was determined and used to calculate compound activities as described below. Effective half maximal values (EC50) were calculated for each compound by performing logistic regression on measured dose-response data points using the equation:
[formula] where “Y” is the observed activity, “Bottom” is the lowest observed value, “Top” is the highest observed value, and the “Hill coefficient” gives the largest absolute value of the slope. The curve fitting is carried out by a curve fitting program implemented at GNF using Matlab (Mathworks).
The dose response curves also were used to calculate Fold Change (FC) using the equation: […]
Compound efficacy relative to the reference compound 3-(6-(1-(2,2-difluorobenzo[d][1,3]dioxol-5-yl)cyclopropane-1-carboxamido)-3-methylpyridin-2-yl)benzoic acid was determined using the following formula: […]

Where [1] appears, read: mean of at least two replicates.
Where [2] appears, read: delF508-CFTR-HRP surface expression.

Read-outs that look alike come from different tables or passages of the source.

T1 sequence (P13569 with tags, fused parts or gaps DEL508-508): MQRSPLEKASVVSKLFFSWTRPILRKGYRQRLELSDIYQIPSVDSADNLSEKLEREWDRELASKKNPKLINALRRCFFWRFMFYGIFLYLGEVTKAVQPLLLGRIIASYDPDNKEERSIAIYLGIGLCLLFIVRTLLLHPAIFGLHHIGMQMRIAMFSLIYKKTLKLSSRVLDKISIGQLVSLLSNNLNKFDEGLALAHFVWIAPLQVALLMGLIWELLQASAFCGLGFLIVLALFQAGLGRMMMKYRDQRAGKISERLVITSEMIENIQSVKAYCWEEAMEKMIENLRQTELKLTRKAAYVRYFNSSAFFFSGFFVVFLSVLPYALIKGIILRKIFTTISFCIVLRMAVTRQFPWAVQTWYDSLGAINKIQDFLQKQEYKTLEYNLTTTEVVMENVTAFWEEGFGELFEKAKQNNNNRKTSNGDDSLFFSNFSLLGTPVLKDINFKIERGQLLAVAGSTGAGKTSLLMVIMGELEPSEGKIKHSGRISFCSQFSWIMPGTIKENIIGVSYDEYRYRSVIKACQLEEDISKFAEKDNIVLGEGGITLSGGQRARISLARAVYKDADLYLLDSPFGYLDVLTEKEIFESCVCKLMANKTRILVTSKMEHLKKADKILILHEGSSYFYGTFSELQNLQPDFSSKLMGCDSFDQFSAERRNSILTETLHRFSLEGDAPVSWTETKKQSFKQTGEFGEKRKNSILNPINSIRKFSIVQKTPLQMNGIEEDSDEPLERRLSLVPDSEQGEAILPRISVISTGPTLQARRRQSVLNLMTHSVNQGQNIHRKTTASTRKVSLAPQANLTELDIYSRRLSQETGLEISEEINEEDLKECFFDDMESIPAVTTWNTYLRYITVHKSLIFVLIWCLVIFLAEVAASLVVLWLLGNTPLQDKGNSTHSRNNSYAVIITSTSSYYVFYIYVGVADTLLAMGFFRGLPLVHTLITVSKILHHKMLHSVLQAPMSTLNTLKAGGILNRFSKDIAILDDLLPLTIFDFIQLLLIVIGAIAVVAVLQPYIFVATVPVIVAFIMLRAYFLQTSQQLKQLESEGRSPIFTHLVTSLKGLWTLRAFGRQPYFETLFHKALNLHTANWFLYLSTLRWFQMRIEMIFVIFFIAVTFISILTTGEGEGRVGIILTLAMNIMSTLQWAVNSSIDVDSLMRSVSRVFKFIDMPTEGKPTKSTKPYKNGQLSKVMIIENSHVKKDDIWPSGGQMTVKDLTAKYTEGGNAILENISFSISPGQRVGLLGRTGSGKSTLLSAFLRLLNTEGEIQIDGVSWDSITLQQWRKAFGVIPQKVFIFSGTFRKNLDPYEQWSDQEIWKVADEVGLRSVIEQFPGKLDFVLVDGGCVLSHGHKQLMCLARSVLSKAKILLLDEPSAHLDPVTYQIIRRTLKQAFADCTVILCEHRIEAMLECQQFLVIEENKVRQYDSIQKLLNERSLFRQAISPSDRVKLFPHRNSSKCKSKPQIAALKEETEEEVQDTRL

With `CC(C)c1ccccc1-c1nc(NS(=O)(=O)c2cccc(N3CCC[C@@](C)(C(=O)O)C3)n2)ccc1Cl` [Example 392, (R)-1-(6-(N-(5-chloro-6-(2-isopropylphenyl)pyridin-2-yl)sulfamoyl)pyridin-2-yl)-3-methylpiperidine-3-carboxylic Acid], the half-maximal effective concentration (EC50) (usually the concentration at which the effect is half-maximal) under setting [1] was 0.527 µM. For the same molecule, the Emax (surface expression Amax) came to 460%.
For `C[C@@]1(C(=O)O)CCCN(c2cccc(S(=O)(=O)Nc3ccc(C(F)(F)F)c(-c4ccccc4Cl)n3)n2)C1` [Example 421, (R)-1-(6-(N-(6-(2-chlorophenyl)-5-(trifluoromethyl)pyridin-2-yl)sulfamoyl)pyridin-2-yl)-3-methylpiperidine-3-carboxylic Acid], the concentration giving a half-maximal response (EC50) under setting [1] was 2.04 µM.
Regarding `CCc1ccccc1-c1nc(NS(=O)(=O)c2cccc(N3CCC[C@@](C)(C(=O)O)C3)n2)ccc1C(F)(F)F` [Example 394, (R)-1-(6-(N-(6-(2-ethylphenyl)-5-(trifluoromethyl)pyridin-2-yl)sulfamoyl)pyridin-2-yl)-3-methylpiperidine-3-carboxylic Acid], the EC50 under setting [1] came out at 1.05 µM.
Regarding `Cc1cccc(C)c1-c1nc(NS(=O)(=O)c2cccc(N3CCN(C(=O)OC(C)(C)C)CC3=O)n2)ccc1Cl` [Example 188, tert-butyl 4-(6-(N-(5-chloro-6-(2,6-dimethylphenyl)pyridin-2-yl)sulfamoyl)pyridin-2-yl)-3-oxopiperazine-1-carboxylate], under setting [2], the Emax came out at 658% and the EC50 came to 0.971 µM.
As for `O=C(O)[C@]12CC[C@H](O1)[C@H](Nc1cccc(S(=O)(=O)Nc3ccc(C(F)(F)F)c(-c4ccccc4C4CC4)n3)n1)C2` (racemic) [Example 438, rac-(1RS,3RS,4SR)-3-((6-(N-(6-(2-cyclopropylphenyl)-5-(trifluoromethyl)pyridin-2-yl)sulfamoyl)pyridin-2-yl)amino)-7-oxabicyclo[2.2.1]heptane-1-carboxylic Acid], under setting [1], the half-maximal effective concentration (EC50) amounted to 1.98 µM. The Emax (surface expression Amax) was 53.4%.
`Cc1ccc(Cl)cc1-c1nc(NS(=O)(=O)c2cccc(N3CCC[C@@](C)(C(=O)O)C3)n2)ccc1C(F)(F)F` [Example 450, (R)-1-(6-(N-(6-(5-chloro-2-methylphenyl)-5-(trifluoromethyl)pyridin-2-yl)sulfamoyl)pyridin-2-yl)-3-methylpiperidine-3-carboxylic Acid]: the half-maximal effective concentration (EC50) under setting [1] was found to be 1.1 µM.
As to `Cc1ccc(F)c(-c2nc(NS(=O)(=O)c3cccc(N)n3)ccc2Cl)c1Cl` [Example 58, 6-amino-N-(5-chloro-6-(2-chloro-6-fluoro-3-methylphenyl)pyridin-2-yl)pyridine-2-sulfonamide], under setting [2], the Emax is 270% and the EC50 was 1.78 µM.
For the molecule `CC1(C(=O)O)CCN(c2cc(S(=O)(=O)Nc3ccc(C(F)(F)F)c(-c4ccccc4C4CCC4)n3)ccn2)CC1` [Example 378, 1-(4-(N-(6-(2-cyclobutylphenyl)-5-(trifluoromethyl)pyridin-2-yl)sulfamoyl)pyridin-2-yl)-4-methylpiperidine-4-carboxylic Acid], under setting [1], the concentration giving a half-maximal response (EC50) came to 1.36 µM. For the setting “surface expression Amax”, the Emax was found to be 272%.
For `CC(C)c1ccccc1-c1nc(NS(=O)(=O)c2cccc(N3CCC[C@](C)(C(=O)O)C3)n2)ccc1C(F)(F)F` [Example 385, (S)-1-(6-(N-(6-(2-isopropylphenyl)-5-(trifluoromethyl)pyridin-2-yl)sulfamoyl)pyridin-2-yl)-3-methylpiperidine-3-carboxylic Acid], under setting [1], the EC50 came out at 0.81 µM. Further, the Emax (surface expression Amax) stood at 668%.
As to `Cc1ccc(F)cc1-c1nc(NS(=O)(=O)c2cccc(N3CCN(C(C)(C)C)CC3)n2)ccc1C(F)(F)F` [Example 143, 6-(4-(tert-butyl)piperazin-1-yl)-N-(6-(5-fluoro-2-methylphenyl)-5-(trifluoromethyl)pyridin-2-yl)pyridine-2-sulfonamide], under setting [2], the Emax was determined as 888% and the 50% effective concentration (EC50) was found to be 2.99 µM.
As for `COc1ccc(Cl)cc1-c1nc(NS(=O)(=O)c2cccc(N3CCCC(C)(C(=O)O)C3)n2)ccc1C(F)(F)F` (stereo not shown) [Example 432, 1-(6-(N-(6-(5-chloro-2-methoxyphenyl)-5-(trifluoromethyl)pyridin-2-yl)sulfamoyl)pyridin-2-yl)-3-methylpiperidine-3-carboxylic Acid], under setting [1], the half-maximal effective concentration (EC50) was determined as 1.92 µM. Further, the Emax (surface expression Amax) came to 596%.
`CC(C)c1ccccc1-c1nc(NS(=O)(=O)c2cccc(N)n2)ccc1F` [Example 35, 6-amino-N-(5-fluoro-6-(2-isopropylphenyl)pyridin-2-yl)pyridine-2-sulfonamide]: under setting [2], the Emax is 398% and the EC50 was determined as 2.11 µM.
On to `Cc1ccccc1-c1nc(NS(=O)(=O)c2cccc(N3CCC4(CC3)CC(C(=O)O)C4)n2)ccc1C(F)(F)F` [Example 446, 7-(6-(N-(6-(o-tolyl)-5-(trifluoromethyl)pyridin-2-yl)sulfamoyl)pyridin-2-yl)-7-azaspiro[3.5]nonane-2-carboxylic Acid], for which the 50% effective concentration (EC50) under setting [1] turned out to be 2.11 µM. In addition, the Emax (surface expression Amax) was 278%.
Take `C[C@@]1(C(=O)O)CCCN(c2cccc(S(=O)(=O)Nc3ccc(C4CC4)c(-c4ccccc4C4CC4)n3)n2)C1` [Example 407, (R)-1-(6-(N-(5-cyclopropyl-6-(2-cyclopropylphenyl)pyridin-2-yl)sulfamoyl)pyridin-2-yl)-3-methylpiperidine-3-carboxylic Acid]: under setting [1], the EC50 is 1.61 µM. Besides, under “surface expression Amax”, the Emax is 468%.
The matching figures for `Cc1ccccc1-c1nc(NS(=O)(=O)c2cccc(NC3CCCC(C(=O)O)C3)n2)ccc1C(F)(F)F` (mixture of isomers) [Example 460, 3-((6-(N-(6-(o-tolyl)-5-(trifluoromethyl)pyridin-2-yl)sulfamoyl)pyridin-2-yl)amino)cyclohexanecarboxylic acid]: 1.81 µM and 362%.
Take `Cc1cc(F)cc(C)c1-c1nc(NS(=O)(=O)c2cccc(N)n2)ccc1Cl` [Example 30, 6-amino-N-(5-chloro-6-(4-fluoro-2,6-dimethylphenyl)pyridin-2-yl)pyridine-2-sulfonamide]: under setting [2], the Emax amounted to 421% and the EC50 was found to be 1.7 µM.
`CC(C)c1ccccc1-c1nc(NS(=O)(=O)c2cccc(N3CCC[C@H](C(=O)O)C3)n2)ccc1C(F)(F)F` [Example 376, (S)-1-(6-(N-(6-(2-isopropylphenyl)-5-(trifluoromethyl)pyridin-2-yl)sulfamoyl)pyridin-2-yl)piperidine-3-carboxylic Acid]: under setting [2], the Emax worked out at 629% and the EC50 was 0.913 µM.
For the molecule `CCCc1ccccc1-c1nc(NS(=O)(=O)c2cccc(N3CCCC(C)(C(=O)O)C3)n2)ccc1C(F)(F)F` (stereo not shown) [Example 401, 3-methyl-1-(6-(N-(6-(2-propylphenyl)-5-(trifluoromethyl)pyridin-2-yl)sulfamoyl)pyridin-2-yl)piperidine-3-carboxylic Acid], the EC50 under setting [1] was determined as 0.796 µM.
Regarding `Cc1ccc(NS(=O)(=O)c2cccc(N3CCC[C@@](C)(C(=O)O)C3)n2)nc1-c1ccccc1C1CC1` [Example 406, (R)-1-(6-(N-(6-(2-cyclopropylphenyl)-5-methylpyridin-2-yl)sulfamoyl)pyridin-2-yl)-3-methylpiperidine-3-carboxylic Acid], under setting [1], the EC50 was 1.52 µM. The Emax (surface expression Amax) turned out to be 334%.
Take `Cc1ccc(C(F)(F)F)cc1-c1nc(NS(=O)(=O)c2cccc(N3CCN(C(=O)OC(C)(C)C)CC3)n2)ccc1Cl` [Example 168, tert-butyl 4-(6-(N-(5-chloro-6-(2-methyl-5-(trifluoromethyl)phenyl)pyridin-2-yl)sulfamoyl)pyridin-2-yl)piperazine-1-carboxylate]: under setting [2], the Emax came to 271% and the EC50 amounted to 0.626 µM.
As to `CCC1(C(=O)O)CCCN(c2cccc(S(=O)(=O)Nc3ccc(C(F)(F)F)c(-c4ccccc4C)n3)n2)C1` (stereo not shown) [Example 454, 3-ethyl-1-(6-(N-(6-(o-tolyl)-5-(trifluoromethyl)pyridin-2-yl)sulfamoyl)pyridin-2-yl)piperidine-3-carboxylic Acid], the EC50 under setting [1] came out at 1.7 µM.

The values are drawn from US11066369B2, “N-(pyridin-2-yl)pyridine-sulfonamide derivatives and their use in the treatment of disease” (Novartis AG, priority 2016, dated 2021).
